Like-named read-outs stand apart in the source and are kept apart here. One block for each compound: values may come before it.
Columns and labels:
[1] = molecular target: PAI-1; set-up: method as in PMID 21280128; details: read-out: K d of copper binding to PAI-1; cited from earlier work
[2] = molecular target: vitronectin (Homo sapiens) (UniProt P04004); details: cited from earlier work
[3] = molecular target: vitronectin SMB domain (Homo sapiens) (UniProt P04004); details: cited from earlier work
[4] = molecular target: PAI-1; set-up: method as in PMID 12067733, PMID 10764685; details: read-out: K d of VN binding to PAI-1; cited from earlier work
[5] = Metal ion titration gel assay (copper sensitivity of PAI-1 latency, PAI-1/tPA complex densitometry); assay type: biochemical; details: 4 µM PAI-1, 30 min, 37 °C, 50 mM MOPS, 100 mM (NH4)2SO4 pH 7.4, total Cu(II) 5-1000 µM, non-equilibrium
Experimental: To determine the Cu(II) concentrations required to induce accelerated PAI-1 latency, we used a gel-based metal ion titration assay. Serial dilutions of CuSO4 were prepared, resulting in final Cu(II) concentrations ranging from 5 to 1000 μM. […] Incubation with metal was initiated by adding PAI-1 at a final concentration of 4 μM and maintaining the mixture at 37 °C in 50 mM MOPS, 100 mM (NH4)2SO4 pH 7.4 for 30 min. After the 30-min incubation, PAI-1 was mixed in a 1:1 ratio with single-chain tPA (Molecular Innovations). Three control samples (PAI-1, tPA, and PAI-1/tPA) were also tested in which copper is not included. Non-reducing SDS-PAGE dye was added to each sample, followed by boiling for 10 min prior to loading on the gel. The free/latent PAI-1, free tPA, and PAI-1/tPA complex in each sample were separated and visualized by SDS-PAGE electrophoresis in a 4–12% gradient gel (Invitrogen). Samples were subjected to electrophoresis at 150 V for 75 min. SDS-PAGE gels were stained with Coomassie blue dye overnight, followed by three destaining steps of 90 min in deionized water containing 30% methanol and 7.5% glacial acetic acid. Gel pictures were captured using a ChemiDoc XRS molecular imager (Biorad), and gel band densitometry of the PAI-1/tPA complex bands was performed using Imagelab (Biorad). […]

[6] = Isothermal titration calorimetry of Cu(II) binding to PAI-1; details: 10 °C; for Kd / K obs: one-site model; for Kd: K d = 1/K obs
Experimental: Isothermal titration calorimetry (ITC) was used to determine the thermodynamic parameters associated with Cu(II) interactions with PAI-1. Active and latent forms of wild-type and variants of PAI-1 were dialyzed into 100 mM MOPS, 250 mM (NH4)2SO4 at 10 °C for 2 h. Because of the relative instability of the H2AH3A variant of PAI-1, our studies on H2AH3A PAI-1 utilized a variant that contained an additional mutation, W175F. […] Residue 175 is not proximal to the N terminus and is not involved in metal ion coordination or its subsequent effects on PAI-1 stability. Copper solutions were prepared by diluting CuSO4 into the matched dialysate buffer. The copper stock concentration was verified using atomic absorbance spectroscopy, and the pH corrected to 7.4 at 10 °C using NaOH. Twenty micromolar PAI-1 (2.2 mL total volume) and copper solution (4 mL) were degassed under vacuum for 10 min at 5 °C prior to loading into the (Malvern) MicroCal VP-ITC. The PAI-1 solution was loaded into the ITC cell (1.394 mL), and the copper solution was loaded into the ITC syringe. The reference and experimental ITC cells were equilibrated to 10 °C prior to the start of the experiment. After a preliminary injection of 2 µL, each additional injection consisted of a 4 µL injection at 120 or 240 s intervals. Experiments were performed at least in duplicate. Control experiments measuring dilution heats were performed in which the copper solution was injected into buffer. The data were baseline corrected using NITPIC software (University of Texas, Southwestern), and fit to either a single-site or two-site non-symmetric binding model in SEDPHAT (National Institutes of Health). The data and fits were represented using GUSSI software (University of Texas, Southwestern).

[7] = molecular target: tPA (Homo sapiens, UniProt P00750); test: PAI-1 activity measurement (inhibition of tPA at varying molar ratios); assay type: biochemical; details: purified active protein
Experimental: The activity of wild-type and variant forms of PAI-1 was measured using standard assays. PAI-1 was mixed with tPA at varying molar ratios ranging from 0.25 to 4 (PAI-1:tPA). The inhibitory capacity of PAI-1 was measured in a gel-based assay, wherein the PAI-1/tPA complex at each molar ratio was monitored and quantified by densitometry. PAI-1 inhibition of proteases was also measured in a kinetic assay in which the tPA-substrate (Spectrozyme tPA, Sekisui Diagnostics) was added to the mixture containing PAI-1 and tPA. Cleavage of the p-nitroanaline group of Spectrozyme tPA was detected by absorbance at 405 nm, allowing for the measurement of tPA activity over time at each molar ratio of PAI-1:tPA. […] Latent PAI-1 was generated by dilution in buffer (50 mM sodium phosphate, 300 mM NaCl, 1 mM EDTA, pH 6.25) to a 5 μM concentration, and incubation at 37 °C with light stirring for 6 days. The aforementioned activity measurements were performed to confirm that no active PAI-1 remained in the mixture.

Sequence of PAI-1 (from UniProt P05121) (P05121 24-402): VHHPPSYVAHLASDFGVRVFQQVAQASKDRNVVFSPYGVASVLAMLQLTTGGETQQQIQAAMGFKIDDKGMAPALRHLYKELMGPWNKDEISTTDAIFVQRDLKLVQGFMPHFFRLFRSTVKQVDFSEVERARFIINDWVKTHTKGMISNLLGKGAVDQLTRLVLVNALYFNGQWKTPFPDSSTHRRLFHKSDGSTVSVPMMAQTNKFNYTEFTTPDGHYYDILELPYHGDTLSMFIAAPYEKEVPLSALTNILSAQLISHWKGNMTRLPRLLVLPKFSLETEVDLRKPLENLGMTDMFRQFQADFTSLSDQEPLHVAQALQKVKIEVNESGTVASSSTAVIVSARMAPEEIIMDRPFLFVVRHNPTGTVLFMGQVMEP
Sequence of vitronectin (Homo sapiens) (P04004 399-478): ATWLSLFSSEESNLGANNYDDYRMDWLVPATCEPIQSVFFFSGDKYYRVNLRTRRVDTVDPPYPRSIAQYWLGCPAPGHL
Sequence of tPA (P00750 311-562 limits assumed): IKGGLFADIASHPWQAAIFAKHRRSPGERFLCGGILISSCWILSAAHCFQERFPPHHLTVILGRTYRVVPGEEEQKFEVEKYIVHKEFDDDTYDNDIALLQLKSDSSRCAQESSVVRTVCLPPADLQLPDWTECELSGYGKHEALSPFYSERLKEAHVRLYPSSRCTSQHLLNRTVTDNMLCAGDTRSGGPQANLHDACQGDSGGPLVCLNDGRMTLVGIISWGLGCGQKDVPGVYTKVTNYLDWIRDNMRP
Sequence of vitronectin SMB domain (Homo sapiens) (P04004 17-66): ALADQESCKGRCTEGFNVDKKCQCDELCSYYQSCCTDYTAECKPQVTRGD

Compound: O=S(=O)([O-])[O-].[Cu+2] [Copper, CuSO4]
- Kd [1]: ~90 nM

Compound: PAI-1 (from UniProt P05121)
- Kd [2]: 0.1 nM
- Kd [3]: 1 nM

Compound: VN: Vitronectin, glycoprotein that binds and stabilizes active PAI-1
- Kd [4]: ~0.1 nM

- Kd ([6]; [Cu(II)] 650 µM): 13 nM
- Kd ([6]; [Cu(II)] 700 µM): 19 nM
- K obs ([6]; [Cu(II)] 750 µM): 4.8 (±5.5) × 10^7 M^−1
- Kd ([6]; [Cu(II)] 750 µM): 20 nM
- K obs ([6]; [Cu(II)] 800 µM): 4.1 (±2.8) × 10^7 M^−1
- Kd ([6]; [Cu(II)] 800 µM): 24 nM
- average K obs ([6]; single-site model, average of replicate data): 5.4e+07 M⁻¹
- molar equivalents of PAI-1 that fully inhibit tPA [7]: 1.25 molar equivalents
Compound: plasminogen activator inhibitor-1 [Wild-type]
- Copper sensitivity (midpoint Cu(II) concentration at which 50% PAI-1/tPA complex is observed) [5]: 150 µM
- Copper sensitivity (midpoint Cu(II) concentration at which 50% PAI-1/tPA complex is observed) ([5]; listed as wild-type PAI-1): approximately 150 µM
